Measurements from patent US12398110B2, “Second generation inhibitors of mitochondrial permeability transition pore with improved plasma stability” (Oregon Health & Science University, priority 2019, dated 2025).

Tests used:
[1] = Plasma stability determination in mouse plasma; type: in vitro ADME
Method: Plasma stability determination. The degradation of TR001 in the presence of mouse plasma (from Innovative Research) was used to predict the plasma stability of the compound to esterase catalyzed hydrolysis. A positive control for plasma cholinesterase, propantheline bromide, was included in all assays. Briefly, murine plasma was incubated with 1 μm TR001. Aliquots were removed at t=0, 5, 15, 30, and 60 and 120 min and quenched with acetonitrile containing structurally related compound (TR073) as the internal standard. The amount of TR001 remaining in the supernatant was assessed by LC-MS/MS in multiple reaction monitoring mode (MRM) using a 4000 QTRAP (SCIEX) with electrospray ionization source. The instrument was operated in negative mode with source parameters: source voltage […], GS1 50, GS2 50, CUR 30, TEM 650 and CAD gas MED. Optimal MRM transitions were obtained by direct infusion of the pure compound into the source. The mass spectrometer was interfaced to a Shimadzu (Columbia, MD) SIL-20AC XR auto-sampler maintained at 35° C. followed by 2 LC-20AD XR LC pumps. The internal standard and compound of interest were resolved using a Gemini-NX C18 50×2.1 mm column (Phenomenex) with 0.1% formic acid (solvent A) and 0.1% formic acid in acetonitrile (solvent B). The injection volume was 10 μL at a flow rate of 0.75 mL/min. The gradient elution was 10% B to 95% B over 5 min and held at 95% for 1 min before returning to start conditions. The column was maintained at 40° C. using a Shimadzu CTO-20AC column oven. Data were acquired using Analyst 1.6.2 and analyzed using Multiquant 3.0.1 software. The first-order rate constant for substrate depletion was determined from a linear least squares fit of the natural log of the percent parent compound remaining versus time. The rate constant was used to calculate the plasma half-life as an indicator of stability.

[2] = test system: inner mitochondrial membrane potential; test: Rhodamine 123 (Rh123) uptake, mitochondrial membrane potential of isolated mouse liver mitochondria; type: biochemical
Description: We next evaluated the mitochondrial toxicity of the new triazole analogs by testing their ability to interfere with accumulation of the membrane-permeant cationic fluorescent dye rhodamine 123 (Rh123). The mitochondrial uptake of positively charged Rh123 is driven by the inside negative IMM potential, which is built by the respiratory chain or maintained by ATP hydrolysis if certain conditions are met. […] It should be noted, however, that toxicity for these compounds only occurs at ˜10-1000-fold higher concentrations compared to mtPTP inhibition, providing a good therapeutic window.
Assessment of mitochondrial membrane potential. Mitochondrial membrane potential—to evaluate toxicity—of isolated mouse liver mitochondria was assessed based on fluorescence quenching of the cationic fluorescent dye Rh123 upon its accumulation into mitochondrial matrix due to inside negative membrane potential. Compounds that interfere with the build-up or maintenance of IMM potential would shift Rh123 fluorescence to higher values compared to DMSO treated samples. Uncoupler FCCP was used to account for nonspecific fluorescence. First, 0.1 mL of SAB was dispensed to a 96-well black assay plate. A set of wells also contained 0.8 μm FCCP (to prevent Rh123 uptake). The test wells contained a range of concentrations (in 1:2 serial dilutions) of the compounds of interest or 2% DMSO. Then, 0.1 mL of 0.5 mg/mL mitochondria in SAB devoid of respiratory substrates but supplemented with 0.8 μm Rh123 were added to all wells of the assay plate. Fluorescence intensity (ex/em 485/535 nm) was read on a Tecan Infinite F200 plate reader for 7 min and value at 5 min was considered for analysis. EC50s±SE were determined with OriginPro software by applying Hill1 function fitting algorithm on average concentration response data of n=3 independent preparations.

[3] = test system: isolated mouse liver mitochondria; test: Oxygen consumption rate of isolated mitochondria (Seahorse XF24); type: biochemical
Description: (§1) A thorough evaluation of toxicity is critical for advancing TR001 to in vivo studies. […] To more thoroughly examine mitochondrial toxicity, we analyzed oxygen consumption rates (OCRs) using the Seahorse XF24 extracellular flux analyzer. This allowed us to assess the effects of TR001 on mitochondrial respiration and ATP synthesis. […] Consequently respiratory control ratios (i.e., the ratios between ADP-stimulated and basal respiration) were not affected across the concentrations tested (FIG. 5B). Complex III inhibitor antimycin A shuts down the electron transport chain at the bc1 complex and was used to account for oxygen leak.
Measurement of respiration. Mitochondrial oxygen consumption of isolated mitochondria or HeLa cell monolayer was assessed with the Seahorse Extracellular Flux Analyzer XF24 (Seahorse Bioscience, Billerica, MA, USA). Isolated mouse liver mitochondria: Mitochondrial assay solution contained 220 mm mannitol, 70 mm sucrose, 25 mm MOPS-Tris, 10 mm Pi-Tris, 5 mm MgCl2, 1 mm EGTA-Tris, 0.2% fatty acid free BSA, 5 mm succinate and 2 μm rotenone, pH 7.4. Mitochondria (5 μg, suspended in 50 μL mitochondrial assay solution) were added to each well of an XF24 cell culture microplate, centrifuged at 2000 g for 20 min at 4° C. and then supplemented with 450 μL of mitochondrial assay solution containing 4 mm ADP to initiate the experiments.

HeLa cells = test: HeLa cell viability assay; type: cell-based; details: up to 50 μm, 24 h treatment
Description: as §1
Cell viability assay. HeLa cells were seeded at a density of 10^4 per well in 96-well plates and let to adhere for 6 h before treatment with varying concentrations of TR001 or vehicle (1% DMSO. After treatment for 24 h the relative viable cell number was determined with a CellTiter 96 Aqueous One Solution Cell Proliferation Assay Kit (Promega).

SMILES: Cc1ccc(Cl)cc1NC(=O)c1cn(-c2ccc(F)c(O)c2)nn1 [TR001, N-(5-chloro-2-methylphenyl)-1-(4-fluoro-3-hydroxyphenyl)-1H-1,2,3-triazole-4-carboxamide]
- fold increase in plasma stability compared to 63 ([1]; TR001 vs 63): 47 fold
- half-life at 1 µM ([1]; mouse, read-out: Mouse Plasma t1/2): 16.5 h
- interference with buildup of IMM potential (in words) ([2]; Rh123 uptake assay): did not interfere with IMM potential
- EC50 ([2]; interference with Rh123 uptake to mitochondria, average ± SEM, n = 3, read-out: Rh123 uptake EC50): > 40 µM
- rates of oxygen consumption (ADP stimulation, oligomycin, FCCP) [3]: no effect
- respiratory control ratios ([3]; across the concentrations tested): not affected
- HeLa cell viability (HeLa cells): did not exhibit any adverse effects
